The record followed here is PMC9516332 (Frontiers in Oncology, 2022).

Common to all, as to test: Kinase panel profiling at 1 µmol/L (MSA or IMAP), percentage inhibition
What all share (assay type): biochemical

For experiment [1], the target named is panel of 255 wild-type kinases (Homo sapiens, UniProt Q96SB4). Conditions: read-out: %-inhibition at 1 µmol/L, SRPK1.
Experiment [2] has as its target panel of 255 wild-type kinases (Homo sapiens, UniProt Q9HCP0). Conditions: read-out: %-inhibition at 1 µmol/L, CK1γ1.
In experiment [3] the target is T1, panel of 255 wild-type kinases (Homo sapiens, UniProt O94806).
T1 sequence (O94806 1-890): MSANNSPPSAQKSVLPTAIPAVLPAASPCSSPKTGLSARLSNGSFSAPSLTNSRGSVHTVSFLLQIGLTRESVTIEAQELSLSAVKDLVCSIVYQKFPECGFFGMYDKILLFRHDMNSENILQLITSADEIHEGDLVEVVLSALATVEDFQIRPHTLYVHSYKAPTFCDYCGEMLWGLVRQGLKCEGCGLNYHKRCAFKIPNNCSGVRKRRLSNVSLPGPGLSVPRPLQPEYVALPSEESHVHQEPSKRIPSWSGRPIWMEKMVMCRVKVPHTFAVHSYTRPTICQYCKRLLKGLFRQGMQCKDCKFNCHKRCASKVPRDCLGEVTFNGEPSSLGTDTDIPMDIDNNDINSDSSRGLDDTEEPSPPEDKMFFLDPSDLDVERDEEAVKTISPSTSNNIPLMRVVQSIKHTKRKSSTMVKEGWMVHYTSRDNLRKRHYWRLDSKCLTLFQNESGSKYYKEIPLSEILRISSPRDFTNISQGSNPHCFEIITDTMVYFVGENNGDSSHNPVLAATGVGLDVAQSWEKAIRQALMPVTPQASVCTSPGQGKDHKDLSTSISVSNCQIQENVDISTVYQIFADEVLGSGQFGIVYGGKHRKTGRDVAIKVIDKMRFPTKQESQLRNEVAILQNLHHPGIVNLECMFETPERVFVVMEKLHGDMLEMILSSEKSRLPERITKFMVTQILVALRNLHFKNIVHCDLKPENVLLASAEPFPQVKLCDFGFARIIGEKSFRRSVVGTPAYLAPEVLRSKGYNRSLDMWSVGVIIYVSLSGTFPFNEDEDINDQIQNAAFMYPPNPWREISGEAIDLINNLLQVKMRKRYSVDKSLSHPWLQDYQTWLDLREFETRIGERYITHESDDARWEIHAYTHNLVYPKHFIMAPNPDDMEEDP
Conditions: read-out: %-inhibition at 1 µmol/L, PKD3.

Experiment [4] concerns the target panel of 255 wild-type kinases (Homo sapiens, UniProt Q96RG2). Conditions: read-out: %-inhibition, PASK.
For experiment [5], the target named is panel of 255 wild-type kinases (Homo sapiens, UniProt Q16654). Conditions: read-out: %-inhibition at 1 µmol/L, PDHK4.
The target in experiment [6] is panel of 255 wild-type kinases (Homo sapiens, UniProt P27448). The conditions noted are these: read-out: %-inhibition, MARK3.
Experiment [7] concerns the target panel of 255 wild-type kinases (Homo sapiens, UniProt P54764). Conditions: read-out: %-inhibition at 1 µmol/L, EPHA4.
Experiment [8] addresses panel of 255 wild-type kinases (Homo sapiens, UniProt P42684). Conditions: read-out: %-inhibition ARG.
Experiment [9] deals with panel of 255 wild-type kinases (Homo sapiens, UniProt P19525). The conditions noted are these: read-out: %-inhibition at 1 µmol/L, PKR.
Experiment [10] concerns the target T2, panel of 255 wild-type kinases (Homo sapiens, UniProt Q9NRA0).
T2 sequence (Q9NRA0 1-654): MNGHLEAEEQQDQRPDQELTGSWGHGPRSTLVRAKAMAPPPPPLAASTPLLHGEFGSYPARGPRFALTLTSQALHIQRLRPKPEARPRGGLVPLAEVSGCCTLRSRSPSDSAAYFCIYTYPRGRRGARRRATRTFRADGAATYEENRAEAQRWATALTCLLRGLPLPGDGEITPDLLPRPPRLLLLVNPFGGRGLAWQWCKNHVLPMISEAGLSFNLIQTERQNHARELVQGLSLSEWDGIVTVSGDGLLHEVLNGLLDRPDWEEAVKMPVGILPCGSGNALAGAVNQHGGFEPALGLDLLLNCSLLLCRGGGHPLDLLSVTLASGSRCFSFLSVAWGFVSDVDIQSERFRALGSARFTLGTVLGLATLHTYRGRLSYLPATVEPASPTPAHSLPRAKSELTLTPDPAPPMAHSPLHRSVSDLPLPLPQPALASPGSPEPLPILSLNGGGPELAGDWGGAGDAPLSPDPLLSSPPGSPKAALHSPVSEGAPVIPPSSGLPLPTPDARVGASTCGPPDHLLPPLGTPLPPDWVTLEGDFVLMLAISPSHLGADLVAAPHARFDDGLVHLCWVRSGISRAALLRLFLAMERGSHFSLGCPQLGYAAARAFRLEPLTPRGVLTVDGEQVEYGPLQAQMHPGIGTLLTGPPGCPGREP
Conditions: read-out: %-inhibition at 1 µmol/L, SPHK2.

For experiment [11], the target named is panel of 255 wild-type kinases (Homo sapiens, UniProt P17948). Conditions: read-out: %-inhibition at 1 µmol/L, FLT1.
Experiment [12] concerns the target panel of 255 wild-type kinases (Homo sapiens, UniProt P29317). Conditions: read-out: %-inhibition at 1 µmol/L, EPHA2.
[13] abbreviates: kinase SRPK1, 1 µmol/L single concentration.
Where [14] appears, read: kinase CK1γ1, 1 µmol/L single concentration.
Setting [15] is: kinase PKD3, 1 µmol/L single concentration.
Setting [16] is: PASK, 1 µmol/L single concentration.
Setting [17] is: kinase PDHK4, 1 µmol/L single concentration.
Setting [18] is: MARK3, 1 µmol/L single concentration.
Setting [19] is: kinase EPHA4, 1 µmol/L single concentration.
Setting [20] is: ARG kinase assay, 1 µmol/L single concentration.
The mark [21] stands for this setting: kinase PKR, 1 µmol/L single concentration.
[22] abbreviates: kinase SPHK2, 1 µmol/L single concentration.
The mark [23] stands for this setting: kinase FLT1, 1 µmol/L single concentration.
[24] abbreviates: kinase EPHA2, 1 µmol/L single concentration.

Where two headings read alike, the source gives them in different places.

As to `Cc1nc(NC(=O)N2CCC[C@H]2C(N)=O)sc1-c1ccnc(C(C)(C)C(F)(F)F)c1` [alpelisib], the inhibition at 1 µM was 6% in experiment [1] (setting [13]); -1.77% in [2] (setting [14]); -2.46% in experiment [3] (setting [15]); -2% in experiment [4] (setting [16]); 0.0757% in experiment [5] (setting [17]); 11% in experiment [6] (setting [18]). For the same molecule, the inhibition at 1 µM is -5% in experiment [7] (setting [19]); 3.28% in experiment [8] (setting [20]); -1% in experiment [9] (setting [21]); 6.5% in [10] (setting [22]); 3% in experiment [11] (setting [23]); -6% in experiment [12] (setting [24]).

For `Cn1cc(-c2cc3c(N4CCN(c5ncc([C@@](C)(N)c6ccc(F)cc6)cn5)CC4)ncnn3c2)cn1` [avapritinib], the inhibition at 1 µM in experiment [1] (setting [13]) is -12%; in experiment [2] (setting [14]) it was 28%; in experiment [3] (setting [15]) it was 8%; in [4] (setting [16]) it was 13%; in [5] (setting [17]), 5.61%; in [6] (setting [18]), -6%. The inhibition at 1 µM in [7] (setting [19]) is 35%; in [8] (setting [20]) it was 47%; in experiment [9] (setting [21]), 9%; in experiment [10] (setting [22]), 0.914%; in [11] (setting [23]) it was 76%; in experiment [12] (setting [24]), 60%.

As for `Cn1cnc2c(F)c(Nc3ccc(Br)cc3F)c(C(=O)NOCCO)cc21` [binimetinib], the inhibition at 1 µM in experiment [1] (setting [13]) was -3.37%; in experiment [2] (setting [14]) it was 1.68%; in [3] (setting [15]), 0.731%; in experiment [4] (setting [16]) it was -2.45%; in experiment [5] (setting [17]) it was -0.429%; in experiment [6] (setting [18]), 7%. For the same molecule, the inhibition at 1 µM in experiment [7] (setting [19]) was 7.56%; in experiment [8] (setting [20]), 1.39%; in [9] (setting [21]), -11%; in [10] (setting [22]), -7.55%; in experiment [11] (setting [23]), 10%; in [12] (setting [24]), 9%.

Turning to `CNC(=O)c1ccc(-c2cnc3ncc(Cc4ccc5ncccc5c4)n3n2)cc1F` [capmatinib], the inhibition at 1 µM is -6% in experiment [1]; -1.88% in experiment [2]; -3.34% in experiment [3]; -5% in [4]; 0.789% in experiment [5]; -0.936% in experiment [6]. Moreover, the inhibition at 1 µM in experiment [7] was -2.77%; in experiment [8], 3.29%; in [9] it was 7%; in [10] it was -2%; in experiment [11] it was 5.7%; in experiment [12] it was -1%.

Turning to `COc1cc2ncnc(Nc3ccc(F)c(Cl)c3)c2cc1NC(=O)/C=C/CN1CCCCC1` [dacomitinib], the inhibition at 1 µM in experiment [1] (setting [13]) was -9.5%; in experiment [2] (setting [14]), 1.84%; in [3] (setting [15]), 8%; in [4] (setting [16]), 5.35%; in experiment [5] (setting [17]) it was 3%; in experiment [6] (setting [18]) it was 10%. The inhibition at 1 µM was 38% in experiment [7] (setting [19]); 40% in experiment [8] (setting [20]); 3.25% in experiment [9] (setting [21]); 7.54% in [10] (setting [22]); 20% in experiment [11] (setting [23]); 14% in [12] (setting [24]).

Consider `C[C@H](Nc1ncnc2nc[nH]c12)c1cc2cccc(Cl)c2c(=O)n1-c1ccccc1` [duvelisib], for which the inhibition at 1 µM is 4% in [1] (setting [13]); -1.46% in experiment [2] (setting [14]); -3.52% in [3] (setting [15]); -0.608% in [4] (setting [16]); 3% in experiment [5] (setting [17]); 12% in experiment [6] (setting [18]). The inhibition at 1 µM in experiment [7] (setting [19]) is -0.265%; in experiment [8] (setting [20]) it was 0.877%; in experiment [9] (setting [21]), 2.64%; in experiment [10] (setting [22]), 11%; in [11] (setting [23]), 7.43%; in experiment [12] (setting [24]), -6.36%.

Turning to `COC(=O)N[C@@H](C)CNc1nccc(-c2cn(C(C)C)nc2-c2cc(Cl)cc(NS(C)(=O)=O)c2F)n1` [encorafenib], the inhibition at 1 µM was -5% in experiment [1] (setting [13]); 26% in experiment [2] (setting [14]); 5% in experiment [3] (setting [15]); -3% in experiment [4] (setting [16]); -2.11% in experiment [5] (setting [17]); 8% in experiment [6] (setting [18]). For the same molecule, the inhibition at 1 µM in experiment [7] (setting [19]) is 10%; in [8] (setting [20]), 1.69%; in [10] (setting [22]), -12%; in [11] (setting [23]) it was 17%; in experiment [12] (setting [24]) it was 9%.

As for `CN1CCN(c2ccc(C(=O)Nc3n[nH]c4ccc(Cc5cc(F)cc(F)c5)cc34)c(NC3CCOCC3)c2)CC1` [entrectinib], the inhibition at 1 µM in [1] (setting [13]) was 2.16%; in experiment [2] (setting [14]), -1.18%; in experiment [3] (setting [15]) it was 3%; in experiment [4] (setting [16]), 1.19%; in experiment [5] (setting [17]), 3.42%; in experiment [6] (setting [18]), 15%. In addition, the inhibition at 1 µM in [7] (setting [19]) was 28%; in [8] (setting [20]) it was 83%; in experiment [9] (setting [21]), 3.49%; in experiment [10] (setting [22]), 20%; in experiment [11] (setting [23]) it was 76%; in experiment [12] (setting [24]), 37%.

In the case of `CCc1nc(C(N)=O)c(Nc2ccc(N3CCC(N4CCN(C)CC4)CC3)c(OC)c2)nc1NC1CCOCC1` [gilteritinib], the inhibition at 1 µM in [1] (setting [13]) is -8%; in experiment [2] (setting [14]) it was 11%; in experiment [3] (setting [15]), 53%; in experiment [4] (setting [16]), 2.54%; in [5] (setting [17]), 3%; in [6] (setting [18]), 52%. Moreover, the inhibition at 1 µM is 36% in [7] (setting [19]); 61% in experiment [8] (setting [20]); 9% in experiment [10] (setting [22]); 95% in experiment [11] (setting [23]); 66% in experiment [12] (setting [24]).
